The subject of test [1] is Phosphatidylinositol 4,5-bisphosphate 3-kinase catalytic subunit alpha isoform (Homo sapiens), P42336 [H1047L]. Kind of test: Inhibition of PIK3CA H1047L mutant (unknown origin) assessed as remaining activity at 5 uM incubated for 1 hr by KINOMEscan competitive binding assay relative to control.
Test [2] concerns Phosphatidylinositol 4,5-bisphosphate 3-kinase catalytic subunit alpha isoform (Homo sapiens), P42336 [H1047Y]. Kind of test: Inhibition of PIK3CA H1047Y mutant (unknown origin) assessed as remaining activity at […] incubated for 1 hr by KINOMEscan competitive binding assay relative to control.
In test [3] the target is Serine/threonine-protein kinase Chk2 (Homo sapiens) (UniProt O96017). Kind of test: Inhibition of CHEK2 (unknown origin) assessed as remaining activity at 15 uM incubated for 1 hr by KINOMEscan competitive binding assay relative to control.
The target in test [4] is Phosphatidylinositol 4,5-bisphosphate 3-kinase catalytic subunit alpha isoform (Homo sapiens) (UniProt P42336). Kind of test: Inhibition of PIK3CA (unknown origin) assessed as remaining activity at 15 uM incubated for 1 hr by KINOMEscan competitive binding assay relative to control.
In test [5] the target is T1, Phosphatidylinositol 3-kinase C2 domain-containing subunit gamma (Homo sapiens) (UniProt O75747).
T1 sequence (whole entry): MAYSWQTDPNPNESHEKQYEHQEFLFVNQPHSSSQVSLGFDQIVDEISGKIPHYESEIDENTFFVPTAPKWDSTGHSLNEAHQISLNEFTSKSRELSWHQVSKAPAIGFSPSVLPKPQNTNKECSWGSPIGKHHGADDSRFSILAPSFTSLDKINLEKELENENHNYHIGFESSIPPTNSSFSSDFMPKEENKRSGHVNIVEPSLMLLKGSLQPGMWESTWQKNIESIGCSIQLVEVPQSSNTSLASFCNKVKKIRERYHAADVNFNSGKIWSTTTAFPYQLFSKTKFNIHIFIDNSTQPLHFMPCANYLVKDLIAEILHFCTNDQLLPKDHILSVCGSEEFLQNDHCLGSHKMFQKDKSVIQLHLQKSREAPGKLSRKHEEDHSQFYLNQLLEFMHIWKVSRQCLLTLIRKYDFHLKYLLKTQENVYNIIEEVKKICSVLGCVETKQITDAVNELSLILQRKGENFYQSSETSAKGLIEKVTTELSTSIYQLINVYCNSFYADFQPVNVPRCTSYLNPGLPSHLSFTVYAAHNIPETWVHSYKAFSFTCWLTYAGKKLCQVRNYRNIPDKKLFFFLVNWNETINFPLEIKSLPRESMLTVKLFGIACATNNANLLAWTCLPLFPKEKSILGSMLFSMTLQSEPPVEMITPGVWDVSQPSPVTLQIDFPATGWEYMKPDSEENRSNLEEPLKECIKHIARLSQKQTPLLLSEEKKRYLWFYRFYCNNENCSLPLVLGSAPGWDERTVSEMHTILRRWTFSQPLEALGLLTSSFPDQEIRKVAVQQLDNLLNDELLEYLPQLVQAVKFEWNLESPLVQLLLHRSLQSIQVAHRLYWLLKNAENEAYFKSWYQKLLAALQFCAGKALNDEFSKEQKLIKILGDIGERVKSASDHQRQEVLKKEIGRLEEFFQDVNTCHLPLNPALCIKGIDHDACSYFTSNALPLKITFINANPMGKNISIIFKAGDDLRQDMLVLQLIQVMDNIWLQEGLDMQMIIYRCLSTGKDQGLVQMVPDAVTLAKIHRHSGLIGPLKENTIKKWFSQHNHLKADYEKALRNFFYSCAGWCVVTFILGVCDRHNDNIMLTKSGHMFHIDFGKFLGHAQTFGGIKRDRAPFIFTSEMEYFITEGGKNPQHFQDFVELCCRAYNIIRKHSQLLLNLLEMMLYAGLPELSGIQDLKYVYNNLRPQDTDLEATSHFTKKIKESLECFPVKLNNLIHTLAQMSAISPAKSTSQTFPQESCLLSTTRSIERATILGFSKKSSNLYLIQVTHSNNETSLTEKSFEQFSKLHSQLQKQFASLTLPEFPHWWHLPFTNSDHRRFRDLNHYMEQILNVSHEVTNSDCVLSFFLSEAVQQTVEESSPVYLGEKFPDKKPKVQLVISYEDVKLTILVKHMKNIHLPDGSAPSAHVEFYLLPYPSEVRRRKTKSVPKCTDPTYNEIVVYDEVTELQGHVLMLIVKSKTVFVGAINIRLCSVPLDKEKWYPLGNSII
Put plainly: Inhibition of PIK3C2G (unknown origin) assessed as remaining activity at 15 uM incubated for 1 hr by KINOMEscan competitive binding assay relative to control.

For test [6], the target named is Phosphatidylinositol 4,5-bisphosphate 3-kinase catalytic subunit beta isoform (Homo sapiens) (UniProt P42338). Put plainly: Inhibition of PIK3CB (unknown origin) assessed as remaining activity at 15 uM incubated for 1 hr by KINOMEscan competitive binding assay relative to control.
Test [7] has as its target Phosphatidylinositol 4-phosphate 3-kinase C2 domain-containing subunit beta (Homo sapiens) (UniProt O00750). Put plainly: Inhibition of PIK3C2B (unknown origin) assessed as remaining activity at 15 uM incubated for 1 hr by KINOMEscan competitive binding assay relative to control.
For test [8], the system named is Phosphatidylinositol 4,5-bisphosphate 3-kinase catalytic subunit alpha isoform (Homo sapiens), P42336 [E545A]. Put plainly: Inhibition of PIK3CA E545A mutant (unknown origin) assessed as remaining activity at 15 uM incubated for 1 hr by KINOMEscan competitive binding assay relative to control.
In test [9] the test system is Phosphatidylinositol 4,5-bisphosphate 3-kinase catalytic subunit alpha isoform (Homo sapiens), P42336 [H1047Y]. Kind of test: Inhibition of PIK3CA H1047Y mutant (unknown origin) assessed as remaining activity at 15 uM incubated for 1 hr by KINOMEscan competitive binding assay relative to control.
For test [10], the system named is Phosphatidylinositol 4,5-bisphosphate 3-kinase catalytic subunit alpha isoform (Homo sapiens), P42336 [Q546K]. Put plainly: Inhibition of PIK3CA Q546K mutant (unknown origin) assessed as remaining activity at 10 uM incubated for 1 hr by KINOMEscan competitive binding assay relative to control.

Sequence of Phosphatidylinositol 4,5-bisphosphate 3-kinase catalytic subunit alpha isoform (Homo sapiens), P42336 [H1047Y] (P42336 whole entry H1047Y, canonical isoform): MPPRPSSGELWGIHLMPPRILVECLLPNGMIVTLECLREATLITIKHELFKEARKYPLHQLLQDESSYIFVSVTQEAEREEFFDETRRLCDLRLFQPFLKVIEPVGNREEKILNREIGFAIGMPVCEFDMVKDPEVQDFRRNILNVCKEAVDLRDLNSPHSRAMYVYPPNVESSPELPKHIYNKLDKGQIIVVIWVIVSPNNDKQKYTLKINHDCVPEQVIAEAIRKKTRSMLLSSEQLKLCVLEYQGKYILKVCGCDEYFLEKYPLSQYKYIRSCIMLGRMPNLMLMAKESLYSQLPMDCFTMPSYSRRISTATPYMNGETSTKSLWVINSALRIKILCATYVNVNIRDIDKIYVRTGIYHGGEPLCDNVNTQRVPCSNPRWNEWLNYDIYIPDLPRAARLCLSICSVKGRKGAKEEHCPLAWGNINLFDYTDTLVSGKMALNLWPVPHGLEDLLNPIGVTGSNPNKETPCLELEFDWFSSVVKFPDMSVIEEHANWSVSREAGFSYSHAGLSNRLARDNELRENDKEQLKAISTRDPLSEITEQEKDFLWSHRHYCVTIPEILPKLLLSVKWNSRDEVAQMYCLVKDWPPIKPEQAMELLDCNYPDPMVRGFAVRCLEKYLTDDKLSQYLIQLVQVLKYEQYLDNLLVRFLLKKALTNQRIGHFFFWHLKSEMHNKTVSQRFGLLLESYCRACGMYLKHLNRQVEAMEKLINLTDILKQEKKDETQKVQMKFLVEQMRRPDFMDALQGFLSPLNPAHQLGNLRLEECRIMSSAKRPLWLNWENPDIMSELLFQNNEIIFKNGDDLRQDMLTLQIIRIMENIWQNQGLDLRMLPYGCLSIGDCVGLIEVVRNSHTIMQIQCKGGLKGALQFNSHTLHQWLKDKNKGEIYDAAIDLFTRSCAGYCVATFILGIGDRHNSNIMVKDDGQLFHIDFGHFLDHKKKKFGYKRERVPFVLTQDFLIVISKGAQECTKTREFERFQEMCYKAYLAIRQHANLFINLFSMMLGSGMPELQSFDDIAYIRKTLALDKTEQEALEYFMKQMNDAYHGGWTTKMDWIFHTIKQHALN
Sequence of Phosphatidylinositol 4,5-bisphosphate 3-kinase catalytic subunit beta isoform (Homo sapiens) (P42338 whole entry, looked up, the tested form may be a part, canonical isoform): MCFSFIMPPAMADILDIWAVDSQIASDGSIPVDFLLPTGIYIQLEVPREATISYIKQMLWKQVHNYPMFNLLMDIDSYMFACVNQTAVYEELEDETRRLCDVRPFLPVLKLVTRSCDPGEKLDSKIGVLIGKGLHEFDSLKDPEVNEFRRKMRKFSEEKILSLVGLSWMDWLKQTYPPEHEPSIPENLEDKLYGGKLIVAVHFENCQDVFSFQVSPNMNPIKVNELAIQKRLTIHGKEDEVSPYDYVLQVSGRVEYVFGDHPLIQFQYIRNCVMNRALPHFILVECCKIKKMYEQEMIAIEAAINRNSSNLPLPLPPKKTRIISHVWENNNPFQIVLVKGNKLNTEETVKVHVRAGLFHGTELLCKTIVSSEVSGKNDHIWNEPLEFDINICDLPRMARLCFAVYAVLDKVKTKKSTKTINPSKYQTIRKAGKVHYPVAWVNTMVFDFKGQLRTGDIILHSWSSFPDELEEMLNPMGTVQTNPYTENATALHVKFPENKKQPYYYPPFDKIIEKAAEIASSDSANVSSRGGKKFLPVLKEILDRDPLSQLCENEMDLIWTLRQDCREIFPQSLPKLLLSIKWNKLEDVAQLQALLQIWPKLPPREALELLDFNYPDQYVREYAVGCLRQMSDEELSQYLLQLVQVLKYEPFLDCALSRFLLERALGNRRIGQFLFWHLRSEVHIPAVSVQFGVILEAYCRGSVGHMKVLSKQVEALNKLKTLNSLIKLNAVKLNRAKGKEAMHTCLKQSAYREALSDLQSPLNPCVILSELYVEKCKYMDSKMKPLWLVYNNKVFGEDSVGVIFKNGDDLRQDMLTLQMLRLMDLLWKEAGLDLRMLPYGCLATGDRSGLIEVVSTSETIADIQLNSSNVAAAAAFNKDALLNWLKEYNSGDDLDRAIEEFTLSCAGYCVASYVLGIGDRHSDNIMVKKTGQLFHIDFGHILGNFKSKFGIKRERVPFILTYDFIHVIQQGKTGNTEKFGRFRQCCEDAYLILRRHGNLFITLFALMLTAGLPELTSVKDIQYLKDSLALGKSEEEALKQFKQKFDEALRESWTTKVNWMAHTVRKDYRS
Sequence of Serine/threonine-protein kinase Chk2 (Homo sapiens) (O96017 whole entry, canonical isoform): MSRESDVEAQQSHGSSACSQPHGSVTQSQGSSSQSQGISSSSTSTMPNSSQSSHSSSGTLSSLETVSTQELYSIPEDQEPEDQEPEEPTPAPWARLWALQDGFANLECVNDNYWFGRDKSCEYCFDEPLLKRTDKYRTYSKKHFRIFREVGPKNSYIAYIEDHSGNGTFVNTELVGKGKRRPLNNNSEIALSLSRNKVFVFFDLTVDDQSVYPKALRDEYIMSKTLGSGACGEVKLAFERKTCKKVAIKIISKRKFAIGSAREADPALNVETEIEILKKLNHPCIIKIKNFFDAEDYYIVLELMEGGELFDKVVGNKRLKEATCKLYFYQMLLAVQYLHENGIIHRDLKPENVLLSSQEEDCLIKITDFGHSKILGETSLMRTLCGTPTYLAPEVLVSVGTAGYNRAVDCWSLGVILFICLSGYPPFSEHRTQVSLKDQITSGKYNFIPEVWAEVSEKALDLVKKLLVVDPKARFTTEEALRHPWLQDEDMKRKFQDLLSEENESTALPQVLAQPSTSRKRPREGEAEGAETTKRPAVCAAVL
Sequence of Phosphatidylinositol 4,5-bisphosphate 3-kinase catalytic subunit alpha isoform (Homo sapiens) (P42336 whole entry, the tested form may be a part, canonical isoform): as the sequence (P42336 whole entry H1047Y, canonical isoform) above, with Y1047H counted along it
Sequence of Phosphatidylinositol 4,5-bisphosphate 3-kinase catalytic subunit alpha isoform (Homo sapiens), P42336 [E545A] (P42336 whole entry E545A, canonical isoform): as the sequence (P42336 whole entry H1047Y, canonical isoform) above, with E545A, Y1047H counted along it

Turning to `O=c1[nH]c2ccc(Cl)cc2c(N[C@@H]2CN3CCC2CC3)c1-c1nc2ccccc2[nH]1`, in test [1], the Activity came out at 65%.
For `CC(C)=CCc1c2c(c3occ(-c4ccc(O)c(O)c4)c(=O)c3c1O)C=CC(C)(C)O2`, in test [2], the Activity worked out at 98%.
On to `CC(C)CCOc1ccc2c(=O)c(-c3ccc(O)c(O)c3)coc2c1`, for which the Activity in test [3] stood at 75%; in [4], 100%; in [5], 75%; in [6] it was 100%; in test [7], 100%; in [8] it was 100%. For the same compound, in [9], the Activity amounted to 98%.
On to `CC(C)CC(=O)Oc1ccc2occ(-c3ccc(O)c(O)c3)c(=O)c2c1`, for which the Activity is 76% in test [3]; 91% in [4]; 57% in test [5]; 92% in test [6]; 91% in test [7]; 100% in test [8]. Besides, the Activity in test [9] came out at 98%.
On to `NC(=O)Nc1cc(-c2cccc(F)c2)sc1C(=O)N[C@H]1CCCNC1`, for which the Activity in test [10] was found to be 60%.

The values are drawn from ChEMBL document CHEMBL5370693, “Kinases Controlling Stability of the Oncogenic MYCN Protein” (ACS Med Chem Lett, 2023).
